Experimental data published in PubChem BioAssay AID2060498 (Molecular Pharmacology Branch, DTP, NCI, 2025).

Tested on: 171881-019-R-J1-PDC tumor spheroids, viability
Assay: Anticancer human tumor 171881-019-R-J1-PDC patient-derived invasive breast carcinoma cell line growth inhibition [GQUAD]
Conditions: spheroids with HUVEC and MSC; for IC50: curve of first compound; for viability, T/C: stronger effect = lower value
In short: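 Multi-cell-type spheroids of tumor cells with HUVEC and mesenchymal stem cells, treated with drug combinations. Concentrations descend in half-log steps from near clinical Cmax, or from 10 microM where Cmax is unknown; viability read-out.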

[1] = second compound 0.0316 µM, first compound 0.0316 µM
[2] = second compound 0.0316 µM, first compound 0.1 µM
[3] = second compound 0.0316 µM, first compound 0.316 µM
[4] = second compound 0.0316 µM, first compound 1 µM
[5] = second compound 0.0316 µM, first compound 3.16 µM
[6] = second compound 0.0316 µM, first compound 10 µM
[7] = second compound 0.1 µM, first compound 0.0316 µM
[8] = second compound 0.1 µM, first compound 0.1 µM
[9] = second compound 0.1 µM, first compound 0.316 µM
[10] = second compound 0.1 µM, first compound 1 µM
[11] = second compound 0.1 µM, first compound 3.16 µM
[12] = second compound 0.1 µM, first compound 10 µM
[13] = second compound 0.316 µM, first compound 0.0316 µM
[14] = second compound 0.316 µM, first compound 0.1 µM
[15] = second compound 0.316 µM, first compound 0.316 µM
[16] = second compound 0.316 µM, first compound 1 µM
[17] = second compound 0.316 µM, first compound 3.16 µM
[18] = second compound 0.316 µM, first compound 10 µM
[19] = second compound 1 µM, first compound 0.0316 µM
[20] = second compound 1 µM, first compound 0.1 µM
[21] = second compound 1 µM, first compound 0.316 µM
[22] = second compound 1 µM, first compound 1 µM
[23] = second compound 1 µM, first compound 3.16 µM
[24] = second compound 1 µM, first compound 10 µM
[25] = second compound 3.16 µM, first compound 0.0316 µM
[26] = second compound 3.16 µM, first compound 0.1 µM
[27] = second compound 3.16 µM, first compound 0.316 µM
[28] = second compound 3.16 µM, first compound 1 µM
[29] = second compound 3.16 µM, first compound 3.16 µM
[30] = second compound 3.16 µM, first compound 10 µM
[31] = second compound 10 µM, first compound 0.0316 µM
[32] = second compound 10 µM, first compound 0.1 µM
[33] = second compound 10 µM, first compound 0.316 µM
[34] = second compound 10 µM, first compound 1 µM
[35] = second compound 10 µM, first compound 3.16 µM
[36] = second compound 10 µM, first compound 10 µM
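Also: spheroids exposed to compounds for 7 days.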
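For viability, T/C in this document: 100% = DMSO vehicle control viability.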

Question: With `C=CCn1c(=O)c2cnc(Nc3ccc(N4CCN(C)CC4)cc3)nc2n1-c1cccc(C(C)(C)O)n1` + Cc1cnc(CNC(=O)c2c(=O)c3ccc(N4CCCN(C)CC4)nc3n3c2sc2ccccc23)cn1 as the molecule, how does the IC50 (second compound 0.0316 µM) read?
Answer: 652 nM

Question: And the IC50 (second compound 0.1 µM)?
Answer: 541 nM

Question: And the IC50 (second compound 0.316 µM)?
Answer: 428 nM

Question: And the IC50 (second compound 1 µM)?
Answer: 496 nM

Question: And the IC50 (second compound 3.16 µM)?
Answer: 566 nM

Question: And the IC50 (second compound 10 µM)?
Answer: 358 nM

Question: What about the viability, T/C [1] of the same molecule?
Answer: 106%

Question: And the viability, T/C [2]?
Answer: 84.2%

Question: And the viability, T/C [3]?
Answer: 74.9%

Question: What about the viability, T/C [4] of the same molecule?
Answer: 36.3%

Question: What about the viability, T/C [5] of the same molecule?
Answer: 19.9%

Question: And the viability, T/C [6]?
Answer: 23.3%

Question: And the viability, T/C [7]?
Answer: 72.9%

Question: And the viability, T/C [8]?
Answer: 76%

Question: And the viability, T/C [9]?
Answer: 60.6%

Question: And the viability, T/C [10]?
Answer: 37.3%

Question: What about the viability, T/C [11] of the same molecule?
Answer: 22.6%

Question: What about the viability, T/C [12] of the same molecule?
Answer: 22.2%

Question: And the viability, T/C [13]?
Answer: 72.1%

Question: What about the viability, T/C [14] of the same molecule?
Answer: 68.6%

Question: What about the viability, T/C [15] of the same molecule?
Answer: 55.7%

Question: What about the viability, T/C [16] of the same molecule?
Answer: 34.3%

Question: What about the viability, T/C [17] of the same molecule?
Answer: 26.1%

Question: And the viability, T/C [18]?
Answer: 24.8%

Question: And the viability, T/C [19]?
Answer: 66.5%

Question: What about the viability, T/C [20] of the same molecule?
Answer: 60.4%

Question: What about the viability, T/C [21] of the same molecule?
Answer: 56.6%

Question: What about the viability, T/C [22] of the same molecule?
Answer: 41.3%

Question: And the viability, T/C [23]?
Answer: 31.1%

Question: And the viability, T/C [24]?
Answer: 28.1%

Question: What about the viability, T/C [25] of the same molecule?
Answer: 66.1%

Question: And the viability, T/C [26]?
Answer: 58%

Question: What about the viability, T/C [27] of the same molecule?
Answer: 58.5%

Question: What about the viability, T/C [28] of the same molecule?
Answer: 42.3%

Question: And the viability, T/C [29]?
Answer: 36.6%

Question: What about the viability, T/C [30] of the same molecule?
Answer: 35.3%

Question: What about the viability, T/C [31] of the same molecule?
Answer: 57.4%

Question: What about the viability, T/C [32] of the same molecule?
Answer: 54.6%

Question: What about the viability, T/C [33] of the same molecule?
Answer: 50.2%

Question: And the viability, T/C [34]?
Answer: 48.7%

Question: What about the viability, T/C [35] of the same molecule?
Answer: 36.4%

Question: What about the viability, T/C [36] of the same molecule?
Answer: 36%

Question: For `CC(C)(O)C1CCC(Nc2ccc3ncc(-c4cccc(C(F)(F)F)c4)n3n2)CC1` (stereo unspecified) + Cc1cnc(CNC(=O)c2c(=O)c3ccc(N4CCCN(C)CC4)nc3n3c2sc2ccccc23)cn1, which IC50 (second compound 0.0316 µM) is on record?
Answer: 1620 nM

Question: And the IC50 (second compound 0.1 µM)?
Answer: 1710 nM

Question: What about the IC50 (second compound 0.316 µM) of the same molecule?
Answer: 1470 nM

Question: What about the IC50 (second compound 1 µM) of the same molecule?
Answer: 1190 nM

Question: And the IC50 (second compound 3.16 µM)?
Answer: 1070 nM

Question: What about the IC50 (second compound 10 µM) of the same molecule?
Answer: 927 nM

Question: What about the viability, T/C [1] of the same molecule?
Answer: 95.8%

Question: What about the viability, T/C [2] of the same molecule?
Answer: 87.5%

Question: What about the viability, T/C [3] of the same molecule?
Answer: 89.5%

Question: What about the viability, T/C [4] of the same molecule?
Answer: 69.7%

Question: What about the viability, T/C [5] of the same molecule?
Answer: 18.2%

Question: What about the viability, T/C [6] of the same molecule?
Answer: 26.9%

Question: And the viability, T/C [7]?
Answer: 88.7%

Question: And the viability, T/C [8]?
Answer: 83.8%

Question: What about the viability, T/C [9] of the same molecule?
Answer: 70.9%

Question: And the viability, T/C [10]?
Answer: 73.4%

Question: And the viability, T/C [11]?
Answer: 19%

Question: What about the viability, T/C [12] of the same molecule?
Answer: 27.2%

Question: And the viability, T/C [13]?
Answer: 76.5%

Question: What about the viability, T/C [14] of the same molecule?
Answer: 76.7%

Question: What about the viability, T/C [15] of the same molecule?
Answer: 72%

Question: And the viability, T/C [16]?
Answer: 63.1%

Question: And the viability, T/C [17]?
Answer: 21.9%

Question: And the viability, T/C [18]?
Answer: 25.7%

Question: And the viability, T/C [19]?
Answer: 71.9%

Question: What about the viability, T/C [20] of the same molecule?
Answer: 65.2%

Question: What about the viability, T/C [21] of the same molecule?
Answer: 72.9%

Question: What about the viability, T/C [22] of the same molecule?
Answer: 56.3%

Question: And the viability, T/C [23]?
Answer: 13.6%

Question: And the viability, T/C [24]?
Answer: 18%

Question: And the viability, T/C [25]?
Answer: 65.4%

Question: And the viability, T/C [26]?
Answer: 60%

Question: And the viability, T/C [27]?
Answer: 63.1%

Question: And the viability, T/C [28]?
Answer: 53.1%

Question: And the viability, T/C [29]?
Answer: 0.32%

Question: What about the viability, T/C [30] of the same molecule?
Answer: 0.82%

Question: What about the viability, T/C [31] of the same molecule?
Answer: 59.3%

Question: And the viability, T/C [32]?
Answer: 62.5%

Question: What about the viability, T/C [33] of the same molecule?
Answer: 58.1%

Question: And the viability, T/C [34]?
Answer: 49.3%

Question: And the viability, T/C [35]?
Answer: 0.4%

Question: What about the viability, T/C [36] of the same molecule?
Answer: 0.62%

Question: Which results are given for `COc1ncnc(C2CC2)c1-c1ncc2cnn(Cc3ccc(-c4nc(C(F)(F)F)cn4C(C)C)cc3)c2n1` + Cc1cnc(CNC(=O)c2c(=O)c3ccc(N4CCCN(C)CC4)nc3n3c2sc2ccccc23)cn1?
Answer: IC50 (second compound 0.0316 µM): > 10000 nM; IC50 (second compound 0.1 µM): > 10000 nM; IC50 (second compound 0.316 µM): > 10000 nM; IC50 (second compound 1 µM): > 10000 nM; IC50 (second compound 3.16 µM): > 10000 nM; IC50 (second compound 10 µM): > 10000 nM; viability, T/C [1]: 93.6%; viability, T/C [2]: 85.3%; viability, T/C [3]: 82.4%; viability, T/C [4]: 85.4%; viability, T/C [5]: 92%; viability, T/C [6]: 87%; viability, T/C [7]: 76.2%; viability, T/C [8]: 83%; viability, T/C [9]: 70%; viability, T/C [10]: 81.7%; viability, T/C [11]: 73.9%; viability, T/C [12]: 71.2%; viability, T/C [13]: 72.1%; viability, T/C [14]: 74.3%; viability, T/C [15]: 69.5%; viability, T/C [16]: 65.8%; viability, T/C [17]: 71.1%; viability, T/C [18]: 63.3%; viability, T/C [19]: 69%; viability, T/C [20]: 61.3%; viability, T/C [21]: 62.3%; viability, T/C [22]: 62.6%; viability, T/C [23]: 63.5%; viability, T/C [24]: 66.2%; viability, T/C [25]: 67.3%; viability, T/C [26]: 57.6%; viability, T/C [27]: 61.2%; viability, T/C [28]: 56.4%; viability, T/C [29]: 62%; viability, T/C [30]: 66.2%; viability, T/C [31]: 53.4%; viability, T/C [32]: 56.9%; viability, T/C [33]: 54.2%; viability, T/C [34]: 57.3%; viability, T/C [35]: 63.1%; viability, T/C [36]: 56.3%
